Test results reported in patent US8288552B2, “Dihydropyridone amidesas P2X7 modulators” (Roche Palo Alto LLC, priority 2008, dated 2012).

Target: T1, P2X7 (UniProt Q99572)
T1 sequence (Q99572 1-595): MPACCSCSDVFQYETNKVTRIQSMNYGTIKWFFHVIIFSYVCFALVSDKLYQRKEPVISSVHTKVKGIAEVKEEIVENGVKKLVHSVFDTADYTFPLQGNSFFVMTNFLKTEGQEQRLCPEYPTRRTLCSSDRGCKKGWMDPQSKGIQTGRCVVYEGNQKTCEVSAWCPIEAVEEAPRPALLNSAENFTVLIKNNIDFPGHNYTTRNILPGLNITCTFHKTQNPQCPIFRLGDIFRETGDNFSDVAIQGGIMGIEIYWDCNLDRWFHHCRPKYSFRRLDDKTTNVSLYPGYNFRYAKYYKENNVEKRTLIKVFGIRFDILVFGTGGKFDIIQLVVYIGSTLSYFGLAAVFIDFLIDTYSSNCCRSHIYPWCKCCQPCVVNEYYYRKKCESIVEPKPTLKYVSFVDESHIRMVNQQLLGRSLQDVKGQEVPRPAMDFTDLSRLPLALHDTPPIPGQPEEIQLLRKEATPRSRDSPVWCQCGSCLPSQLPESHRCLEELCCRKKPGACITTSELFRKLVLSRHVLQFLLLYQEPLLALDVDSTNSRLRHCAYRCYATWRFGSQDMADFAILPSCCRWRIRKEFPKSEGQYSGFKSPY
Experiment: P2X7 pKi of Table 1
Format: cell-based
Summary of the method: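 Human P2X7 in 1321N1 cells and rat P2X7 in HEK293 cells, loaded with fluo-3 for 1 hr at 37° C, then exposed to antagonist for 20 min at room temperature. BzATP agonist was used at 100 μM final (human) or 5 μM final (rat), with fluorescence read for 5 min. The response was normalized to maximal fluorescence evoked by 5 μM ionomycin.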

SMILES: Cc1cc2c(cc1NC(=O)C1=CNC(=O)C[C@H]1c1ccc(F)cc1)OCCO2 [Compound 140, (S)-4-(4-Fluoro-phenyl)-6-oxo-1,4,5,6-tetrahydro-pyridine-3-carboxylic acid(7-methyl-2,3-dihydro-benzo[1,4]dioxin-6-yl)-amide]
- pKi: 6.94

SMILES: Cc1ccc(C(C)C)cc1NC(=O)C1=CNC(=O)CC1c1cccc(F)c1 (stereo not drawn) [Compound 51, 4-(3-Fluoro-phenyl)-6-oxo-1,4,5,6-tetrahydro-pyridine-3-carboxylic acid(5-isopropyl-2-methyl-phenyl)-amide]
- pKi: 7.445

SMILES: COc1cc(C)c(NC(=O)C2=CNC(=O)C[C@H]2c2cccc(F)c2)cc1OC [Compound 48, (S)-4-(3-Fluoro-phenyl)-6-oxo-1,4,5,6-tetrahydro-pyridine-3-carboxylic acid (4,5-dimethoxy-2-methyl-phenyl)-amide]
- pKi: 7.7225

SMILES: Cc1cc(Cl)c(OCCO)cc1NC(=O)C1=CNC(=O)CC1c1ccc(F)cc1 (stereo not drawn) [Compound 61, 4-(4-Fluoro-phenyl)-6-oxo-1,4,5,6-tetrahydro-pyridine-3-carboxylic acid [4-chloro-5-(2-hydroxy-ethoxy)-2-methyl-phenyl]-amide]
- pKi: 7.755

SMILES: COc1cc(NC(=O)C2=CNC(=O)CC2c2ccccc2)c(Br)cc1C (stereo not drawn) [Compound 2, 6-Oxo-4-phenyl-1,4,5,6-tetrahydro-pyridine-3-carboxylic acid(2-bromo-5-methoxy-4-methyl-phenyl)-amide]
- pKi: 6.595

SMILES: Cc1cc(Cl)c(OCC(=O)N(C)C)cc1NC(=O)C1=CNC(=O)C[C@H]1c1ccc(F)cc1 [Compound 130, (S)-4-(4-Fluoro-phenyl)-6-oxo-1,4,5,6-tetrahydro-pyridine-3-carboxylic acid(4-chloro-5-dimethylcarbamoyl-methoxy-2-methyl-phenyl)-amide]
- pKi: 7.2767

SMILES: Cc1cccc(NC(=O)C2=CNC(=O)C[C@H]2c2ccc(F)cc2)c1C [Compound 58, (S)-4-(4-Fluoro-phenyl)-6-oxo-1,4,5,6-tetrahydro-pyridine-3-carboxylic acid (2,3-dimethyl-phenyl)-amide]
- pKi: 6.785

SMILES: Cc1ccc(C(C)O)cc1NC(=O)C1=CNC(=O)C[C@H]1c1cccc(F)c1 (stereo partly drawn) [Compound 119, (S)-4-(3-Fluoro-phenyl)-6-oxo-1,4,5,6-tetrahydro-pyridine-3-carboxylic acid[5-(1-hydroxy-ethyl)-2-methyl-phenyl]-amide]
- pKi: 7.2

SMILES: CCc1cc(Cl)c(OCCO)cc1NC(=O)C1=CNC(=O)C[C@H]1c1ccc(F)cc1 [Compound 123, (S)-4-(4-Fluoro-phenyl)-6-oxo-1,4,5,6-tetrahydro-pyridine-3-carboxylic acid[4-chloro-2-ethyl-5-(2-hydroxy-ethoxy)-phenyl]-amide]
- pKi: 7.293
